# In article PMC10817512, “OSMAC-Based Discovery and Biosynthetic Gene Clusters Analysis of Secondary Metabolites from Marine-Derived Streptomyces globisporus SCSIO LCY30” (Marine Drugs, 2023):
# Like-named read-outs stand apart in the source and are kept apart here.
# Legend:
# [1] = tested on: Staphylococcus simulans AKA1; test: Antibacterial MIC, CLSI microdilution; assay type: cell-based
# Bacillus subtilis BS01 = test: Antibacterial MIC, CLSI microdilution; assay type: cell-based
# Procedure: (§1) An antibacterial activity test of compounds 1–3 was conducted according to a standard protocol provided by the Clinical and Laboratory Standards Institute (CLSI). Sixteen bacterial strains were used, including Staphylococcus aureus ATCC 29213, Staphylococcus aureus 16339, Staphylococcus aureus 1862, Staphylococcus aureus 3090, Staphylococcus aureus 991, Staphylococcus aureus 669, Staphylococcus aureus 745324, Staphylococcus aureus 16162, Staphylococcus aureus (cfr) GDE4P037P, Enterococcus faecalis ATCC 29212, Enterococcus faecalis 36950, Micrococcus luteus ML01, MRSA, Bacillus subtilis BS01, Enterococcus gallinarum 5F52C, and Enterococcus faecium 36711. Compounds 1–3 were dissolved in DMSO at a concentration of 3.2 mg/mL, and vancomycin and ampicilin were used as antibacterial control agents. […] All the assays were carried out in triplicate.
# [2] = tested on: Enterococcus faecalis 36950; test: Antibacterial MIC, CLSI microdilution; assay type: cell-based
# Procedure: as §1
# [3] = tested on: Enterococcus faecalis ATCC 29212; test: Antibacterial MIC, CLSI microdilution; assay type: cell-based
# Procedure: as §1
# [4] = tested on: Enterococcus faecium 36711; test: Antibacterial MIC, CLSI microdilution; assay type: cell-based
# Procedure: as §1
# [5] = tested on: Enterococcus gallinarum 5F52C; test: Antibacterial MIC, CLSI microdilution; assay type: cell-based
# Procedure: as §1
# Micrococcus luteus ML01 = test: Antibacterial MIC, CLSI microdilution; assay type: cell-based
# Procedure: as §1
# [6] = tested on: Staphylococcus aureus (cfr) GDE4P037P; test: Antibacterial MIC, CLSI microdilution; assay type: cell-based
# Procedure: as §1
# [7] = tested on: Staphylococcus aureus 16162; test: Antibacterial MIC, CLSI microdilution; assay type: cell-based
# Procedure: as §1
# [8] = tested on: Staphylococcus aureus 16339; test: Antibacterial MIC, CLSI microdilution; assay type: cell-based
# Procedure: as §1
# [9] = tested on: Staphylococcus aureus 1862; test: Antibacterial MIC, CLSI microdilution; assay type: cell-based
# Procedure: as §1
# [10] = tested on: Staphylococcus aureus 3090; test: Antibacterial MIC, CLSI microdilution; assay type: cell-based
# Procedure: as §1
# [11] = tested on: Staphylococcus aureus 669; test: Antibacterial MIC, CLSI microdilution; assay type: cell-based
# Procedure: as §1
# [12] = tested on: Staphylococcus aureus 745324; test: Antibacterial MIC, CLSI microdilution; assay type: cell-based
# Procedure: as §1
# [13] = tested on: Staphylococcus aureus 991; test: Antibacterial MIC, CLSI microdilution; assay type: cell-based
# Procedure: as §1
# [14] = tested on: Staphylococcus aureus ATCC 29213; test: Antibacterial MIC, CLSI microdilution; assay type: cell-based
# Procedure: as §1
# MRSA = test: Antibacterial MIC, CLSI microdilution; assay type: cell-based, Staphylococcus aureus
# Procedure: as §1
# [15] = tested on: cervical cancer cell line Hela; test: Cell growth inhibitory (cytotoxic) activity assay; assay type: cell-based, human
# Description: (§2) The cell growth inhibitory activities of compounds 1–3 against fourteen different human cell lines (human liver cell line LX-2; hepatocellular cancer line HEPG2; human intestinal epithelial cell line NCM460; colorectal cancer cell lines HCT116 and SW480; normal human breast cell line MCF-10A; breast cancer cell line MCF7; triple-negative breast cancer cell lines MDA-MB-231, MDA-MB-468, and Bt-549; human umbilical vein endothelial cell line; lung cancer cell line A549; cervical cancer cell line Hela; and cholangiocarcinoma cell line RBE) were tested according to the previously published methods. SPSS software version 22.0 was used to test the IC50 values. Cisplatin and adriamycin were used as positive control agents, and all the experiments were carried out in triplicate.
# [16] = tested on: cholangiocarcinoma cell line RBE; test: Cell growth inhibitory (cytotoxic) activity assay; assay type: cell-based, human
# Description: as §2
# [17] = tested on: colorectal cancer cell line HCT116; test: Cell growth inhibitory (cytotoxic) activity assay; assay type: cell-based, human
# Description: as §2
# [18] = tested on: colorectal cancer cell line SW480; test: Cell growth inhibitory (cytotoxic) activity assay; assay type: cell-based, human; conditions: SW480 (colorectal cancer)
# Description: as §2
# [19] = tested on: hepatocellular cancer line HEPG2; test: Cell growth inhibitory (cytotoxic) activity assay; assay type: cell-based, human
# Description: as §2
# [20] = tested on: lung cancer cell line A549; test: Cell growth inhibitory (cytotoxic) activity assay; assay type: cell-based, human
# Description: as §2
# [21] = tested on: triple-negative breast cancer cell line Bt-549; test: Cell growth inhibitory (cytotoxic) activity assay; assay type: cell-based, human; conditions: for IC50: Bt-549 (TNBC)
# Description: as §2
# [22] = tested on: triple-negative breast cancer cell line MDA-MB-231; test: Cell growth inhibitory (cytotoxic) activity assay; assay type: cell-based, human; conditions: for IC50: MDA-MB-231 (TNBC)
# Description: as §2
# [23] = tested on: triple-negative breast cancer cell line MDA-MB-468; test: Cell growth inhibitory (cytotoxic) activity assay; assay type: cell-based, human; conditions: for IC50: MDA-MB-468 (TNBC)
# Description: as §2
# [24] = tested on: breast cancer cell line MCF7; test: Cell growth inhibitory (cytotoxic) activity assay; assay type: cell-based, human
# Description: SPSS software version 22.0 was used to test the IC50 values.
# [25] = tested on: human intestinal epithelial cell line NCM460; test: Cell growth inhibitory (cytotoxic) activity assay; assay type: cell-based; conditions: NCM460 (normal intestinal epithelial cell line)
# Description: as §2
# [26] = tested on: human liver cell line LX-2; test: Cell growth inhibitory (cytotoxic) activity assay; assay type: cell-based; conditions: LX-2 (human liver cell line)
# Description: as §2
# [27] = tested on: human umbilical vein endothelial cell line HUVEC; test: Cell growth inhibitory (cytotoxic) activity assay; assay type: cell-based
# Description: as §2
# [28] = tested on: normal human breast cell line MCF-10A; test: Cell growth inhibitory (cytotoxic) activity assay; assay type: cell-based; conditions: MCF-10A (normal human breast cell line)
# Description: as §2
# [29] = tested on: fourteen human cell lines; test: Cytotoxicity, span over the whole cell panel; assay type: cell-based; conditions: span of the IC50 values over all fourteen cell lines, read-out: IC50 values, range against fourteen human cell lines
# Description: as §2
# [30] = tested on: TNBC cell lines MDA-MB-231, MDA-MB-468, and Bt-549; test: Cytotoxicity, span over TNBC cell lines; assay type: cell-based; conditions: Homo sapiens; span over MDA-MB-231, MDA-MB-468 and Bt-549; read-out: IC50 values, range against TNBC cell lines
# Description: as §2
# Bacillus subtilis = tested on: Bacillus subtilis; set-up: method as in PMID 18396903; conditions: ref [35]; cited from earlier work
# [31] = Micrococcus luteus ML01, 37 °C, 16–18 h
compound,measurement,setting,value
"Cc1cc(O)c2c3c(c(O)c(C4CC(N)C(O)C(C)O4)c2c1)C(=O)c1c(O)cccc1C3=O (centres unmarked) [Mayamycin B (2), mayamycin B]",MIC,"[1]; Staphylococcus simulans AKA1, 37 °C, 16–18 h, read-out: MIC",64 µg/mL
same,MIC,"Bacillus subtilis BS01; Bacillus subtilis BS01, 37 °C, 16–18 h, read-out: MIC",8 µg/mL
same,MIC,"[2]; Enterococcus faecalis 36950, 37 °C, 16–18 h, read-out: MIC",8 µg/mL
same,MIC,"[3]; ATCC29212, Enterococcus faecalis ATCC 29212, 37 °C, 16–18 h, read-out: MIC",16 µg/mL
same,MIC,"[4]; Enterococcus faecium 36711, 37 °C, 16–18 h, read-out: MIC",32 µg/mL
same,MIC,"[5]; Enterococcus gallinarum 5F52C, 37 °C, 16–18 h, read-out: MIC",32 µg/mL
same,MIC,Micrococcus luteus ML01; [31],1 µg/mL
same,MIC,"Micrococcus luteus ML01; Micrococcus luteus, ML01, Micrococcus luteus ML01, 37 °C, 16–18 h, read-out: MIC",1 to 2 µg/mL
same,MIC,"[6]; Staphylococcus aureus (cfr) GDE4P037P, 37 °C, 16–18 h, read-out: MIC",8 µg/mL
same,MIC,"[7]; Staphylococcus aureus 16162, 37 °C, 16–18 h, read-out: MIC",16 µg/mL
same,MIC,"[8]; Staphylococcus aureus 16339, 37 °C, 16–18 h, read-out: MIC",16 µg/mL
same,MIC,"[9]; Staphylococcus aureus 1862, 37 °C, 16–18 h, read-out: MIC",16 µg/mL
same,MIC,"[10]; Staphylococcus aureus 3090, 37 °C, 16–18 h, read-out: MIC",8 µg/mL
same,MIC,"[11]; Staphylococcus aureus 669, 37 °C, 16–18 h, read-out: MIC",16 µg/mL
same,MIC,"[12]; Staphylococcus aureus 745324, 37 °C, 16–18 h, read-out: MIC",8 µg/mL
same,MIC,"[13]; Staphylococcus aureus 991, 37 °C, 16–18 h, read-out: MIC",16 µg/mL
same,MIC,"[14]; ATCC29213, Staphylococcus aureus ATCC 29213, 37 °C, 16–18 h, read-out: MIC",16 µg/mL
same,MIC,"MRSA; Staphylococcus aureus, 37 °C, 16–18 h, read-out: MIC",8 µg/mL
same,IC50,[15]; Homo sapiens,2.8 µM
same,IC50,[16]; Homo sapiens,4.06 µM
same,IC50,"[17]; Homo sapiens, HCT-116",2.05 µM
same,IC50,[18]; Homo sapiens,2.87 µM
same,IC50,[19]; Homo sapiens,6 µM
same,IC50,[20]; Homo sapiens,5.08 µM
same,IC50,[21]; Homo sapiens,3.87 µM
same,IC50,[22]; Homo sapiens,3.01 µM
same,IC50,[23]; Homo sapiens,6.08 µM
same,IC50,[24]; Homo sapiens,4.15 µM
same,IC50,[25]; Homo sapiens,7.16 µM
same,IC50,[26],5.33 µM
same,IC50,[27],4.41 µM
same,IC50,[28],5.21 µM
same,IC50,[29],2.05 to 7.16 µM
same,IC50,[30],3.01 to 6.08 µM
"CN[C@H](CC(C)C)C(=O)N[C@H]1C(=O)N[C@@H](CC(N)=O)C(=O)N[C@H]2C(=O)N[C@H]3C(=O)N[C@H](C(=O)N[C@H](C(=O)O)c4cc(O)cc(O)c4-c4cc3ccc4O)[C@H](O)c3ccc(c(Cl)c3)Oc3cc2cc(c3O[C@@H]2O[C@H](CO)[C@@H](O)[C@H](O)[C@H]2O[C@H]2C[C@](C)(N)[C@H](O)[C@H](C)O2)Oc2ccc(cc2Cl)[C@H]1O [Vancomycin, reference compound]",MIC,"[1]; Staphylococcus simulans, AKA1",0.5 µg/mL
same,MIC,"Bacillus subtilis BS01; Bacillus subtilis, BS01",0.13 µg/mL
same,MIC,"[2]; Enterococcus faecalis, 36950",0.5 µg/mL
same,MIC,"[3]; Enterococcus faecalis, ATCC29212",2 µg/mL
same,MIC,"[4]; Enterococcus faecium, 36711",> 64 µg/mL
same,MIC,"[5]; Enterococcus gallinarum, GALLINARUM",4 µg/mL
same,MIC,"Micrococcus luteus ML01; Micrococcus luteus, ML01",0.13 µg/mL
same,MIC,[6]; Staphylococcus aureus,1 µg/mL
same,MIC,"[7]; Staphylococcus aureus, 16162",0.5 µg/mL
same,MIC,"[8]; Staphylococcus aureus, 16339",1 µg/mL
same,MIC,"[9]; Staphylococcus aureus, 1862",1 µg/mL
same,MIC,"[10]; Staphylococcus aureus, 3090",0.5 µg/mL
same,MIC,"[11]; Staphylococcus aureus, 669",1 µg/mL
same,MIC,"[12]; Staphylococcus aureus, 745324",1 µg/mL
same,MIC,"[13]; Staphylococcus aureus, 991",0.5 µg/mL
same,MIC,"[14]; Staphylococcus aureus, ATCC29213",1 µg/mL
same,MIC,MRSA; Staphylococcus aureus,0.5 µg/mL
mayamycin A [Mayamycin (1)],MIC,"[1]; Staphylococcus simulans AKA1, 37 °C, 16–18 h",32 µg/mL
same,MIC,"Bacillus subtilis BS01; Bacillus subtilis BS01, 37 °C, 16–18 h",8 µg/mL
same,MIC,"[2]; Enterococcus faecalis 36950, 37 °C, 16–18 h",8 µg/mL
same,MIC,"[3]; Enterococcus faecalis ATCC 29212, 37 °C, 16–18 h",32 µg/mL
same,MIC,"[4]; Enterococcus faecium 36711, 37 °C, 16–18 h",16 µg/mL
same,MIC,"[5]; Enterococcus gallinarum 5F52C, 37 °C, 16–18 h",32 µg/mL
same,MIC,Micrococcus luteus ML01; [31],1 µg/mL
same,MIC,"[6]; Staphylococcus aureus (cfr) GDE4P037P, 37 °C, 16–18 h",8 µg/mL
same,MIC,"[7]; Staphylococcus aureus 16162, 37 °C, 16–18 h",16 µg/mL
same,MIC,"[8]; Staphylococcus aureus 16339, 37 °C, 16–18 h",16 µg/mL
same,MIC,"[9]; Staphylococcus aureus 1862, 37 °C, 16–18 h",16 µg/mL
same,MIC,"[10]; Staphylococcus aureus 3090, 37 °C, 16–18 h",16 µg/mL
same,MIC,"[11]; Staphylococcus aureus 669, 37 °C, 16–18 h",16 µg/mL
same,MIC,"[12]; Staphylococcus aureus 745324, 37 °C, 16–18 h",16 µg/mL
same,MIC,"[13]; Staphylococcus aureus 991, 37 °C, 16–18 h",16 µg/mL
same,MIC,"[14]; Staphylococcus aureus ATCC 29213, 37 °C, 16–18 h",16 µg/mL
same,MIC,"MRSA; 37 °C, 16–18 h",8 µg/mL
same,IC50,[15],0.91 µM
same,IC50,[16],1.05 µM
same,IC50,[17],1.08 µM
same,IC50,[18],1.05 µM
same,IC50,[19],2.12 µM
same,IC50,[20],1.65 µM
same,IC50,[21],1.88 µM
same,selective index,[21]; Bt-549 versus normal breast cells,3.18
same,IC50,[22],0.6 µM
same,selective index,[22]; MDA-MB-231 versus normal breast cells,9.97
same,IC50,[23],2.22 µM
same,selective index,[23]; MDA-MB-468 versus normal breast cells,2.69
same,IC50,[24],2.1 µM
same,IC50,[25],2.64 µM
same,IC50,[26],2.31 µM
same,IC50,[27],1.68 µM
same,IC50,[28],5.98 µM
streptophenazine H,MIC,Bacillus subtilis,15.6 µg/mL
